This note sets out measurements from ChEMBL document CHEMBL6134788, “Development of naphthalimide hydrazide derivatives as potent antibacterial agents against carbapenem-resistant A. baumannii” (RSC Med Chem, 2024).

≈ marks a conversion by molar mass, not a printed value.

As usually defined, the CC50 is the concentration giving 50% cytotoxicity.

Data set [1] has as its system Acinetobacter baumannii. The data set is described as follows: Antibacterial activity against carbapenem-resistant Acinetobacter baumannii BAA 1605 assessed as inhibition of bacterial growth incubated for 16 to 18 hrs by CLSI protocol based method. It is filed as functional. Particulars: time 16-18 hrs.
The nature of data set [2]: Selectivity index, ratio of CC50 for cytotoxicity against African green monkey VERO cells to MIC for antibacterial activity against carbapenem-resistant Acinetobacter baumannii BAA 1605 assessed as inhibition of bacterial growth. Format: toxicity, cell-based. Particulars: read-out: Selectivity Index.
Data set [3] in a line: Cytotoxicity against African green monkey Vero cells assessed as reduction in cell viability incubated for 72 hrs by MTT assay. Particulars: chlorocebus sabaeus. Format: toxicity, cell-based. A general note: Tetrazolium assays rely on reduction of a dye to a coloured formazan, in cell work by metabolically active cells.
Data set [4] concerns Acinetobacter baumannii. The data set is described as follows: Antibacterial activity against multi-drug resistant Acinetobacter baumannii WL-487 assessed as inhibition of bacterial growth incubated for 16 to 18 hrs by CLSI protocol based method. It is filed as functional. The settings on record: time 16-18 hrs, read-out: MIC100.
Data set [5] deals with Acinetobacter baumannii. Briefly: Antibacterial activity against multi-drug resistant Acinetobacter baumannii clinical isolate 6 assessed as inhibition of bacterial growth incubated for 16 to 18 hrs by CLSI protocol based method. It is filed as functional. The settings on record: time 16-18 hrs, read-out: MIC100.
Data set [6] concerns Acinetobacter baumannii. Briefly: Antibacterial activity against multi-drug resistant Acinetobacter baumannii clinical isolate 8 assessed as inhibition of bacterial growth incubated for 16 to 18 hrs by CLSI protocol based method. It is filed as functional. Particulars: time 16-18 hrs, read-out: MIC100.
For data set [7], the system named is Acinetobacter baumannii. The data set is described as follows: Antibacterial activity against multi-drug resistant Acinetobacter baumannii clinical isolate 2 assessed as inhibition of bacterial growth incubated for 16 to 18 hrs by CLSI protocol based method. It is filed as functional. The settings on record: time 16-18 hrs, read-out: MIC100.
Data set [8] concerns Acinetobacter baumannii. The data set is described as follows: Antibacterial activity against multi-drug resistant Acinetobacter baumannii Naval-18 assessed as inhibition of bacterial growth incubated for 16 to 18 hrs by CLSI protocol based method. It is filed as functional. Particulars: time 16-18 hrs, read-out: MIC100.
Data set [9] has as its system Acinetobacter baumannii. The data set is described as follows: Antibacterial activity against multi-drug resistant Acinetobacter baumannii 5-032 assessed as inhibition of bacterial growth incubated for 16 to 18 hrs by CLSI protocol based method. Format: functional. Particulars: time 16-18 hrs, read-out: MIC100.
Data set [10] has as its system Acinetobacter baumannii. The data set is described as follows: Antibacterial activity against multi-drug resistant Acinetobacter baumannii Naval-17 assessed as inhibition of bacterial growth incubated for 16 to 18 hrs by CLSI protocol based method. Format: functional. The settings on record: time 16-18 hrs, read-out: MIC100.
Data set [11] concerns Acinetobacter baumannii. Briefly: Antibacterial activity against multi-drug resistant Acinetobacter baumannii H72721 assessed as inhibition of bacterial growth incubated for 16 to 18 hrs by CLSI protocol based method. It is filed as functional. Particulars: time 16-18 hrs, read-out: MIC100.
For data set [12], the system named is Acinetobacter baumannii. The data set is described as follows: Antibacterial activity against multi-drug resistant Acinetobacter baumannii 5-109 assessed as inhibition of bacterial growth incubated for 16 to 18 hrs by CLSI protocol based method. Format: functional. The settings on record: time 16-18 hrs, read-out: MIC100.
For data set [13], the system named is Acinetobacter baumannii. Briefly: Antibacterial activity against multi-drug resistant Acinetobacter baumannii clinical isolate 10 assessed as inhibition of bacterial growth incubated for 16 to 18 hrs by CLSI protocol based method. Particulars: time 16-18 hrs, read-out: MIC100. Format: functional.
For data set [14], the system named is Acinetobacter baumannii. The data set is described as follows: Antibacterial activity against multi-drug resistant Acinetobacter baumannii clinical isolate 11 assessed as inhibition of bacterial growth incubated for 16 to 18 hrs by CLSI protocol based method. Particulars: time 16-18 hrs, read-out: MIC100. It is filed as functional.
Data set [15] has as its system Acinetobacter baumannii. Briefly: Antibacterial activity against multi-drug resistant Acinetobacter baumannii 5-189 assessed as inhibition of bacterial growth incubated for 16 to 18 hrs by CLSI protocol based method. It is filed as functional. Particulars: time 16-18 hrs, read-out: MIC100.
In data set [16] the test system is Acinetobacter baumannii. The data set is described as follows: Antibacterial activity against multi-drug resistant Acinetobacter baumannii Naval-81 assessed as inhibition of bacterial growth incubated for 16 to 18 hrs by CLSI protocol based method. Format: functional. Particulars: time 16-18 hrs, read-out: MIC100.
The subject of data set [17] is Acinetobacter baumannii. Briefly: Antibacterial activity against multi-drug resistant Acinetobacter baumannii clinical isolate 5 assessed as inhibition of bacterial growth incubated for 16 to 18 hrs by CLSI protocol based method. Format: functional. Particulars: time 16-18 hrs, read-out: MIC100.
The test system of data set [18] is Acinetobacter baumannii. The data set is described as follows: Antibacterial activity against multi-drug resistant Acinetobacter baumannii clinical isolate 1 assessed as inhibition of bacterial growth incubated for 16 to 18 hrs by CLSI protocol based method. Particulars: time 16-18 hrs, read-out: MIC100. Format: functional.
Data set [19] concerns Acinetobacter baumannii. The data set is described as follows: Antibacterial activity against multi-drug resistant Acinetobacter baumannii WL-136 assessed as inhibition of bacterial growth incubated for 16 to 18 hrs by CLSI protocol based method. Format: functional. The settings on record: time 16-18 hrs, read-out: MIC100.
In data set [20] the test system is Acinetobacter baumannii. The data set is described as follows: Antibacterial activity against multi-drug resistant Acinetobacter baumannii clinical isolate 9 assessed as inhibition of bacterial growth incubated for 16 to 18 hrs by CLSI protocol based method. It is filed as functional. The settings on record: time 16-18 hrs, read-out: MIC100.
In data set [21] the test system is Acinetobacter baumannii. Briefly: Antibacterial activity against multi-drug resistant Acinetobacter baumannii clinical isolate 12 assessed as inhibition of bacterial growth incubated for 16 to 18 hrs by CLSI protocol based method. Particulars: time 16-18 hrs, read-out: MIC100. Format: functional.
Data set [22] has as its system Acinetobacter baumannii. Briefly: Antibacterial activity against multi-drug resistant Acinetobacter baumannii clinical isolate 3 assessed as inhibition of bacterial growth incubated for 16 to 18 hrs by CLSI protocol based method. Particulars: time 16-18 hrs, read-out: MIC100. It is filed as functional.
For data set [23], the system named is Acinetobacter baumannii. The data set is described as follows: Antibacterial activity against Acinetobacter baumannii ATCC 17978 assessed as inhibition of bacterial growth incubated for 16 to 18 hrs by CLSI protocol based method. It is filed as functional. The settings on record: time 16-18 hrs, read-out: MIC100.
Data set [24] deals with Acinetobacter baumannii. Briefly: Antibacterial activity against multi-drug resistant Acinetobacter baumannii clinical isolate 4 assessed as inhibition of bacterial growth incubated for 16 to 18 hrs by CLSI protocol based method. Particulars: time 16-18 hrs, read-out: MIC100. Format: functional.
The test system of data set [25] is Acinetobacter baumannii. The data set is described as follows: Antibacterial activity against multi-drug resistant Acinetobacter baumannii 5-143 assessed as inhibition of bacterial growth incubated for 16 to 18 hrs by CLSI protocol based method. It is filed as functional. Particulars: time 16-18 hrs, read-out: MIC100.
Data set [26] deals with Acinetobacter baumannii. Briefly: Antibacterial activity against multi-drug resistant Acinetobacter baumannii NR-17777 assessed as inhibition of bacterial growth incubated for 16 to 18 hrs by CLSI protocol based method. It is filed as functional. Particulars: time 16-18 hrs, read-out: MIC100.
Data set [27] relates to Acinetobacter baumannii. The data set is described as follows: Antibacterial activity against multi-drug resistant Acinetobacter baumannii BC-5 assessed as inhibition of bacterial growth incubated for 16 to 18 hrs by CLSI protocol based method. Format: functional. The settings on record: time 16-18 hrs, read-out: MIC100.
Data set [28] concerns Acinetobacter baumannii. The data set is described as follows: Antibacterial activity against multi-drug resistant Acinetobacter baumannii clinical isolate 7 assessed as inhibition of bacterial growth incubated for 16 to 18 hrs by CLSI protocol based method. Format: functional. Particulars: time 16-18 hrs, read-out: MIC100.
For a further data set, the system named is Staphylococcus aureus. Briefly: Antibacterial activity against Staphylococcus aureus ATCC 29213 assessed as inhibition of bacterial growth incubated for 16 to 18 hrs by CLSI protocol based method. The settings on record: time 16-18 hrs, read-out: MIC100. It is filed as functional.

As to `COc1cccc2c1C(=O)c1c(O)c3c(c(O)c1C2=O)C[C@@](O)(C(=O)CO)C[C@@H]3O[C@H]1C[C@H](N)[C@H](O)[C@H](C)O1` [DOXORUBICIN], in the data set on Acinetobacter baumannii [1] (read-out: MIC), the MIC is over 64 µg/mL. For the same molecule, the selectivity ratio in data set [2] was under 1. Also, in data set [3], the 50% cytotoxic concentration (CC50) at 72 h is under 10 µg/mL.
For `CN(C)c1ccc(O)c2c1C[C@H]1C[C@H]3[C@H](N(C)C)C(O)=C(C(N)=O)C(=O)[C@@]3(O)C(O)=C1C2=O` [MINOCYCLINE], the MIC with Acinetobacter baumannii [4] came out at 0.25 µg/mL (≈ 0.546 µM); in the data set with Acinetobacter baumannii [5], 4 µg/mL (≈ 8.74 µM); with Acinetobacter baumannii [6], 4 µg/mL (≈ 8.74 µM); in the data set on Acinetobacter baumannii [7] it was 2 µg/mL (≈ 4.37 µM); in the data set on Acinetobacter baumannii [8], 1 µg/mL (≈ 2.19 µM); with Acinetobacter baumannii [9] it was 0.25 µg/mL (≈ 0.546 µM). The MIC was 2 µg/mL (≈ 4.37 µM) in the data set with Acinetobacter baumannii [1] (read-out: MIC100); 16 µg/mL (≈ 35 µM) in the data set with Acinetobacter baumannii [10]; 2 µg/mL (≈ 4.37 µM) with Acinetobacter baumannii [11]; 2 µg/mL (≈ 4.37 µM) in the data set with Acinetobacter baumannii [12]; 2 µg/mL (≈ 4.37 µM) in the data set on Acinetobacter baumannii [13]; 2 µg/mL (≈ 4.37 µM) in the data set on Acinetobacter baumannii [14]. Further, the MIC with Acinetobacter baumannii [15] is 8 µg/mL (≈ 17.5 µM); in the data set on Acinetobacter baumannii [16], 1 µg/mL (≈ 2.19 µM); in the data set on Acinetobacter baumannii [17], 8 µg/mL (≈ 17.5 µM); in the data set with Acinetobacter baumannii [18], 2 µg/mL (≈ 4.37 µM); in the data set on Acinetobacter baumannii [19], 0.25 µg/mL (≈ 0.546 µM); in the data set on Acinetobacter baumannii [20] it was 4 µg/mL (≈ 8.74 µM). The MIC with Acinetobacter baumannii [21] was 4 µg/mL (≈ 8.74 µM); in the data set on Acinetobacter baumannii [22] it was 1 µg/mL (≈ 2.19 µM); in the data set with Acinetobacter baumannii [23] it was 0.125 µg/mL (≈ 0.273 µM); with Acinetobacter baumannii [24], 2 µg/mL (≈ 4.37 µM); in the data set on Acinetobacter baumannii [25], 0.25 µg/mL (≈ 0.546 µM); in the data set on Acinetobacter baumannii [26], 2 µg/mL (≈ 4.37 µM). Further, the values for the MIC with Acinetobacter baumannii [27] and in the data set with Acinetobacter baumannii [28] were 2 µg/mL (≈ 4.37 µM) and 8 µg/mL (≈ 17.5 µM), respectively.
Turning to `C[C@H]1COc2c(N3CCN(C)CC3)c(F)cc3c(=O)c(C(=O)O)cn1c23` [LEVOFLOXACIN ANHYDROUS], the MIC in the data set with Acinetobacter baumannii [4] was 0.125 µg/mL (≈ 0.346 µM); in the data set with Acinetobacter baumannii [5], 4 µg/mL (≈ 11.1 µM); in the data set with Acinetobacter baumannii [6] it was 4 µg/mL (≈ 11.1 µM); in the data set on Acinetobacter baumannii [7], over 64 µg/mL; with Acinetobacter baumannii [8] it was 4 µg/mL (≈ 11.1 µM); with Acinetobacter baumannii [9], 0.25 µg/mL (≈ 0.692 µM). Also, the MIC in the data set on Acinetobacter baumannii [1] (read-out: MIC100) is 4 µg/mL (≈ 11.1 µM); with Acinetobacter baumannii [10], 16 µg/mL (≈ 44.3 µM); in the data set with Acinetobacter baumannii [13], over 64 µg/mL; in the data set on Acinetobacter baumannii [14], 64 µg/mL (≈ 177 µM); with Acinetobacter baumannii [18], 32 µg/mL (≈ 88.6 µM); in the data set on Acinetobacter baumannii [19] it was 0.25 µg/mL (≈ 0.692 µM). Moreover, the MIC with Acinetobacter baumannii [20] is 4 µg/mL (≈ 11.1 µM); in the data set with Staphylococcus aureus it was 0.25 µg/mL (≈ 0.692 µM); in the data set on Acinetobacter baumannii [21] it was 4 µg/mL (≈ 11.1 µM); in the data set on Acinetobacter baumannii [22], 64 µg/mL (≈ 177 µM); in the data set with Acinetobacter baumannii [23] it was 0.03 µg/mL (≈ 0.083 µM); in the data set on Acinetobacter baumannii [24], over 64 µg/mL. Further, in the data set with Acinetobacter baumannii [25], the MIC came to 1 µg/mL (≈ 2.77 µM). Moreover, the CC50 at 72 h in data set [3] is over 400 µg/mL.
